Source: PMC6174881 (Journal of medicinal chemistry, 2018)
“And” between values parts separate entries of the source, which are not always exact repeats. Equal entries are not always repeated. Where two headings read alike, the source gives them in different places. Values belong to the compound of their own block, whether it stands above or below them. Square brackets hold non-standard residues; d marks the D form. Peptide text beside a SMILES is read from it. hPhe = N[C@@H](CCc1ccccc1)C(=O)O; Nle = CCCC[C@H](N)C(=O)O; Dap = NC[C@H](N)C(=O)O

Experiments:
[1] = biological target: mMC4R (Mus musculus, UniProt P56450); conditions: for fold increase in potency at the mMC4R compared to 1: calculated using Ki values from Schild analysis; for selectivity for the mMC4R over the mMC3R: calculated using antagonist Ki values
Sequence of mMC4R (P56450 whole entry): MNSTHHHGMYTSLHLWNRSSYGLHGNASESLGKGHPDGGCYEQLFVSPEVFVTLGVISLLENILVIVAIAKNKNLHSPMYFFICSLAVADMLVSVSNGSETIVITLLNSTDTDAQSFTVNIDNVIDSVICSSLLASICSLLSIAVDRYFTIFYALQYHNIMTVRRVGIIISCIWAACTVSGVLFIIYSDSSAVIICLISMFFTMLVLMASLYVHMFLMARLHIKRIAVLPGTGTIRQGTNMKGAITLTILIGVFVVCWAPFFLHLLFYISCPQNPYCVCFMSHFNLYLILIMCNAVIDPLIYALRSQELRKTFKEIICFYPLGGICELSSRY

[2] = biological target: T1, mMC1R (Mus musculus, UniProt Q01727); conditions: for mMC1R agonist activity in words: up to 100 μM
T1 sequence (Q01727 whole entry): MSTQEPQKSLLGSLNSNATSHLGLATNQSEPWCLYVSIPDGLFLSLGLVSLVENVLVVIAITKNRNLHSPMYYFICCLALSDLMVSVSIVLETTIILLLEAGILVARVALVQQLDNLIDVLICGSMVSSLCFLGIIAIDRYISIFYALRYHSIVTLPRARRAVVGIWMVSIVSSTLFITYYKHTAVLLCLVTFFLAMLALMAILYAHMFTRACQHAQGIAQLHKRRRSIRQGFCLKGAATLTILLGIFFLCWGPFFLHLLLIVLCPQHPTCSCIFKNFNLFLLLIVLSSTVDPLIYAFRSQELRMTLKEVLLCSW

[3] = biological target: T1, mMC1R; assay: cell-based
[4] = biological target: mMC5R (Mus musculus, UniProt P41149); assay: AlphaScreen cAMP assay, agonist/inverse agonist activity at mMC5R; conditions: for mMC5R inverse agonist efficacy (−X%): relative to basal, apparent sigmoidal dose-response; for mMC5R activity in words: up to 100 μM
Sequence of mMC5R (P41149 whole entry): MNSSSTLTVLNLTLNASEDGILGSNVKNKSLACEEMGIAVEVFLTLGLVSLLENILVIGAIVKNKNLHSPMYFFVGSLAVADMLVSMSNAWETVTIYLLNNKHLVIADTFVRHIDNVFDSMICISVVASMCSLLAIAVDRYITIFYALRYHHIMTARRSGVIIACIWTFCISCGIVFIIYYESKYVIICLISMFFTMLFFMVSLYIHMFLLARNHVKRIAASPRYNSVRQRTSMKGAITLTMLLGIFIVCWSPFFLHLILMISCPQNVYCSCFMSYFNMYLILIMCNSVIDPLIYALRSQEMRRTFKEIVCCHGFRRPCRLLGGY

[5] = biological target: mMC3R (Mus musculus, UniProt P33033); conditions: for fold increase in potency at the mMC3R compared to 1: calculated using Ki values from Schild analysis
Sequence of mMC3R (P33033 whole entry): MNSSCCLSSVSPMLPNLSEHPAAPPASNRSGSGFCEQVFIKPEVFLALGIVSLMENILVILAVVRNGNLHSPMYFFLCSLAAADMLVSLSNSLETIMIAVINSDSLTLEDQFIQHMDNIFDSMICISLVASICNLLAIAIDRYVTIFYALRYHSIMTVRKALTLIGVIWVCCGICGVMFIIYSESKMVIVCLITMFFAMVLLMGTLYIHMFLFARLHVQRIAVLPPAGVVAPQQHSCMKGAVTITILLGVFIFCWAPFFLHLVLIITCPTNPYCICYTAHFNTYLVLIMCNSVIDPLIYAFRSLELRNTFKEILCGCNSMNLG

[6] = biological target: mouse melanocortin-1 receptor (mouse) (UniProt Q01727)
Sequence of mouse melanocortin-1 receptor (mouse) (Q01727 whole entry): as the sequence (Q01727 whole entry) above

[7] = maximal stimulation relative to NDP-MSH, sigmoidal dose-response
[8] = Schild analysis with agonist NDP-MSH, pA2 = −log[Ki]

Compound: CCCC[C@@H]1NC(=O)[C@H](C)NC(=O)[C@H](CC(N)=O)NC(=O)[C@H](Cc2ccccc2)NC(=O)[C@H](Cc2ccccc2)NC(=O)[C@H](CCCNC(=N)N)NC(=O)[C@@H]2CCCN2C(=O)[C@H]2CCCN2C1=O [Compound 2, c[Pro-Arg-Phe-Phe-Asn-Ala-Nle-DPro]]
- Kb [1]: 1.26 nM
- fold increase in potency at the mMC4R compared to 1 [1]: ≤ 10 fold
- mMC1R partial agonist activity (X%), receptor stimulated to given percent [2, 7]: 50%
- EC50 [3]: 1700 ± 300 nM
- EC50 [4]: 10 ± 6 nM
- mMC5R inverse agonist efficacy (−X%) [4]: −20%
- mMC5R activity in words [4]: inverse agonist activity was observed
- Kb [5]: 251 nM

Compound: N=C(N)NCCC[C@@H]1NC(=O)[C@@H]2CCCN2C(=O)[C@H]2CCCN2C(=O)[C@H](Cc2ccccc2)NC(=O)[C@H](CO)NC(=O)[C@H](CC(N)=O)NC(=O)[C@H](Cc2ccccc2)NC(=O)[C@H](Cc2ccccc2)NC1=O [Compound 3, c[Pro-Arg-Phe-Phe-Asn-Ser-Phe-DPro]] (cyclo(RFFNSF[dP]P))
- Kb [1]: 7.94 nM
- fold increase in potency at the mMC4R compared to 1 [1]: ≤ 10 fold
- EC50 [3]: 1200 ± 300 nM
- EC50 [4]: 6 ± 3 nM
- mMC5R inverse agonist efficacy (−X%) [4]: −14%
- mMC5R activity in words [4]: inverse agonist activity was observed
- Kb [5]: 794 nM

Compound: C[C@@H]1NC(=O)[C@H](CN)NC(=O)[C@H](Cc2ccccc2)NC(=O)[C@H](Cc2ccccc2)NC(=O)[C@H](CCCNC(=N)N)NC(=O)[C@@H]2CCCN2C(=O)[C@H]2CCCN2C(=O)[C@H](Cc2ccccc2)NC1=O [Compound 5, c[Pro-Arg-Phe-Phe-Dap-Ala-Phe-DPro]]
- mMC1R partial agonist activity (X%), receptor stimulated to given percent [2, 7]: 80%
- EC50 [3]: 1600 ± 400 nM
- EC50 [4]: > 100000 nM
- Kb [5]: 63.1 nM

Compound: CCCC[C@@H]1NC(=O)[C@H](C)NC(=O)[C@H](CC(N)=O)NC(=O)[C@H](CCc2ccccc2)NC(=O)[C@H](Cc2ccccc2)NC(=O)[C@H](CCCNC(=N)N)NC(=O)[C@@H]2CCCN2C(=O)[C@H]2CCCN2C1=O [Compound 14, c[Pro-Arg-Phe-hPhe-Asn-Ala-Nle-DPro]]
- mMC1R agonist activity in words [2]: did not possess agonist activity

Compound: CCCC[C@@H]1NC(=O)[C@H](CO)NC(=O)[C@H](CC(N)=O)NC(=O)[C@H](CCc2ccccc2)NC(=O)[C@H](Cc2ccccc2)NC(=O)[C@H](CCCNC(=N)N)NC(=O)[C@@H]2CCCN2C(=O)[C@H]2CCCN2C1=O [Compound 16, c[Pro-Arg-Phe-hPhe-Asn-Ser-Nle-DPro]] (cyclo(RF[hPhe]NS[Nle][dP]P))
- fold more potent than AGRP at the mMC4R [1]: 3–6 fold
- Antagonist mMC4R pA2 [1, 8]: 9.23
- selectivity for the mMC4R over the mMC3R [1]: 600–800 fold and 800 fold
- mMC5R activity in words [4]: did not result in mMC5R stimulation
- Antagonist mMC3R pA2 [5, 8]: 6.33

Compound: CCCC[C@@H]1NC(=O)[C@H](CO)NC(=O)[C@H](CN)NC(=O)[C@H](CCc2ccccc2)NC(=O)[C@H](Cc2ccccc2)NC(=O)[C@H](CCCNC(=N)N)NC(=O)[C@@H]2CCCN2C(=O)[C@H]2CCCN2C1=O [Compound 20, c[Pro-Arg-Phe-hPhe-Dap-Ser-Nle-DPro]] (cyclo(RF[hPhe][Dap]S[Nle][dP]P))
- fold more potent than AGRP at the mMC4R [1]: 3–6 fold
- fold increase in potency at the mMC4R compared to 1 [1]: 25 fold
- selectivity for the mMC4R over the mMC3R [1]: 600–800 fold and 600 fold
- mMC5R activity in words [4]: did not result in mMC5R stimulation

Compound: CCCC[C@@H]1NC(=O)[C@H](C)NC(=O)[C@H](CCCNC(=N)N)NC(=O)[C@H](CCc2ccccc2)NC(=O)[C@H](Cc2ccccc2)NC(=O)[C@H](CCCNC(=N)N)NC(=O)[C@@H]2CCCN2C(=O)[C@H]2CCCN2C1=O [Compound 22, c[Pro-Arg-Phe-hPhe-Arg-Ala-Nle-DPro]] (cyclo(RF[hPhe]RA[Nle][dP]P))
- mMC1R agonist activity in words [2]: did not possess agonist activity
- fold increase in potency at the mMC3R compared to 1 [5]: greater than 10 fold

Compound: N=C(N)NCCC[C@@H]1NC(=O)[C@H](CCc2ccccc2)NC(=O)[C@H](Cc2ccccc2)NC(=O)[C@H](CCCNC(=N)N)NC(=O)[C@@H]2CCCN2C(=O)[C@H]2CCCN2C(=O)[C@H](Cc2ccccc2)NC(=O)[C@H](CO)NC1=O [Compound 23, c[Pro-Arg-Phe-hPhe-Arg-Ser-Phe-DPro]] (cyclo(RF[hPhe]RSF[dP]P))
- fold increase in potency at the mMC3R compared to 1 [5]: greater than 10 fold

Compound: cyclo(PRF[hPhe]RS[Nle][dP])
- agonist EC50, cAMP (AlphaScreen), HEK293 cells stably expressing mMC1R [6]: 400 nM

Next, values leading:

- fold increase in potency at the mMC4R compared to 1 [1]: ≤ 10 fold
- mMC5R inverse agonist efficacy −X% @ 100 μM ([4]; at 100 μM relative to basal, no sigmoidal dose-response): −35% @ 100μM
- mMC5R activity in words [4]: inverse agonist activity was observed
Compound: CCCC[C@@H]1NC(=O)[C@H](CO)NC(=O)[C@H](CC(N)=O)NC(=O)[C@H](Cc2ccccc2)NC(=O)[C@H](Cc2ccccc2)NC(=O)[C@H](CCCNC(=N)N)NC(=O)[C@@H]2CCCN2C(=O)[C@H]2CCCN2C1=O [Compound 4, c[Pro-Arg-Phe-Phe-Asn-Ser-Nle-DPro]] (cyclo(RFFNS[Nle][dP]P))

- fold increase in potency at the mMC4R compared to 1 [1]: ≥ 10 fold
Compound: CCCC[C@@H]1NC(=O)[C@H](CO)NC(=O)[C@H](CN)NC(=O)[C@H](Cc2ccccc2)NC(=O)[C@H](Cc2ccccc2)NC(=O)[C@H](CCCNC(=N)N)NC(=O)[C@@H]2CCCN2C(=O)[C@H]2CCCN2C1=O [Compound 8, c[Pro-Arg-Phe-Phe-Dap-Ser-Nle-DPro]] (cyclo(RFF[Dap]S[Nle][dP]P))

- Kb [1]: 2 nM
- mMC1R partial agonist activity (X%), receptor stimulated to given percent [2]: 25%
- EC50 [3]: 600 ± 200 nM
- EC50 [4]: > 100000 nM
- Kb [5]: 39.8 nM
- fold increase in potency at the mMC3R compared to 1 [5]: greater than 10 fold
Compound: C[C@@H]1NC(=O)[C@H](CCCNC(=N)N)NC(=O)[C@H](Cc2ccccc2)NC(=O)[C@H](Cc2ccccc2)NC(=O)[C@H](CCCNC(=N)N)NC(=O)[C@@H]2CCCN2C(=O)[C@H]2CCCN2C(=O)[C@H](Cc2ccccc2)NC1=O [Compound 9, c[Pro-Arg-Phe-Phe-Arg-Ala-Phe-DPro]] (cyclo(RFFRAF[dP]P))

- fold increase in potency at the mMC4R compared to 1 [1]: ≥ 10 fold
- fold increase in potency at the mMC3R compared to 1 [5]: greater than 10 fold
Compound: CCCC[C@@H]1NC(=O)[C@H](C)NC(=O)[C@H](CCCNC(=N)N)NC(=O)[C@H](Cc2ccccc2)NC(=O)[C@H](Cc2ccccc2)NC(=O)[C@H](CCCNC(=N)N)NC(=O)[C@@H]2CCCN2C(=O)[C@H]2CCCN2C1=O [Compound 10, c[Pro-Arg-Phe-Phe-Arg-Ala-Nle-DPro]] (cyclo(RFFRA[Nle][dP]P))

- fold increase in potency at the mMC4R compared to 1 [1]: ≥ 10 fold
Compound: CCCC[C@@H]1NC(=O)[C@H](CO)NC(=O)[C@H](CCCNC(=N)N)NC(=O)[C@H](Cc2ccccc2)NC(=O)[C@H](Cc2ccccc2)NC(=O)[C@H](CCCNC(=N)N)NC(=O)[C@@H]2CCCN2C(=O)[C@H]2CCCN2C1=O [Compound 12, c[Pro-Arg-Phe-Phe-Arg-Ser-Nle-DPro]] (cyclo(RFFRS[Nle][dP]P))

- mMC1R agonist activity in words [2]: did not possess agonist activity
Compound: CCCC[C@@H]1NC(=O)[C@H](C)NC(=O)[C@H](CN)NC(=O)[C@H](CCc2ccccc2)NC(=O)[C@H](Cc2ccccc2)NC(=O)[C@H](CCCNC(=N)N)NC(=O)[C@@H]2CCCN2C(=O)[C@H]2CCCN2C1=O [Compound 18, c[Pro-Arg-Phe-hPhe-Dap-Ala-Nle-DPro]] (cyclo(RF[hPhe][Dap]A[Nle][dP]P))

- mMC1R partial agonist activity (X%), receptor stimulated to given percent [2]: 25%
- fold increase in potency at the mMC3R compared to 1 [5]: greater than 10 fold
Compound: CCCC[C@@H]1NC(=O)[C@H](CO)NC(=O)[C@H](CCCNC(=N)N)NC(=O)[C@H](CCc2ccccc2)NC(=O)[C@H](Cc2ccccc2)NC(=O)[C@H](CCCNC(=N)N)NC(=O)[C@@H]2CCCN2C(=O)[C@H]2CCCN2C1=O [Compound 24, c[Pro-Arg-Phe-hPhe-Arg-Ser-Nle-DPro]] (cyclo(RF[hPhe]RS[Nle][dP]P))
